# Assay results from US20170368082A1, “FORMULATIONS OF BRINCIDOFOVIR” (priority 2016, published 2017).
# Experiment: PBMC PK of CDV-PP following IV and oral suspension BCV
# Type: in vivo, human
# Conditions: PBMC CDV-PP
# Method: Two single dose BCV studies in healthy subjects contributed data for this analysis. The first study was a 2-period crossover bioequivalence study that enrolled 24 subjects who received two formulations of BCV oral suspension 100 mg fasted, one in each period. Data from 12 subjects who had PBMCs collected in Period 1 were included in this analysis; these subjects were 100% female, 31-59 years, and 58-88 kg. The second study, outlined above, enrolled 40 subjects who received IV BCV or placebo. Data from 18 subjects who received BCV 50 mg as either a 2-h or 4-h IV infusion were included in this analysis; these subjects were 100% male, 18-46 years, 64-106 kg. Serial PBMC samples were collected over 14 days and assayed by HPLC-MS-MS. PBMC CDV-PP PK parameters were determined by non-compartmental analysis.
# [1] = BCV 50 mg IV 2 h Infusion, n = 9
# [2] = BCV 50 mg IV 4 h Infusion, n = 9
# [3] = BCV 100 mg Oral suspension, n = 12
substance,measurement,setting,value
cidofovir diphosphate [CDV-PP],AUClast,[1],1409 pg · h/10^6 cells
same,Cmax,[1],14.3 pg/10^6 cells
same,AUClast,[2],963 pg · h/10^6 cells
same,Cmax,[2],8.41 pg/10^6 cells
same,AUClast,[3],1107 pg · h/10^6 cells
same,Cmax,[3],7.68 pg/10^6 cells
